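Dose response: 5 concentrations. Exposure: 48 h. Format: 96-well plates. Endpoint: linear interpolation; highest concentration if not reached. GI50: concentration for 50% inhibition of growth.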 Active and inactive are the calls of the source. No stated cut-off is given here; in the data, active = GI50 up to about 1.1 µM and inactive = higher.
Assays:
Experiment in all cases: DTP human tumour cell line panel, 48 h
[1] = test system: A549
[2] = test system: SNB-19
[3] = test system: SK-MEL-5
[4] = test system: LOX IMVI
[5] = test system: MDA-MB-435
[6] = test system: MDA-N
[7] = test system: NCI-H226
[8] = test system: OVCAR-5
[9] = test system: M14
[10] = test system: MDA-MB-231
[11] = test system: HL-60
[12] = test system: KM12
[13] = test system: HOP-92
[14] = test system: MCF7
[15] = test system: K562
[16] = test system: DU-145
[17] = test system: OVCAR-4
[18] = test system: TK-10
[19] = test system: Malme-3M
[20] = test system: HCT-116

Row | SMILES | GI50 [1] | GI50 [2] | GI50 [3] | GI50 [4] | GI50 [5] | GI50 [6] | GI50 [7] | GI50 [8] | GI50 [9] | GI50 [10] | GI50 [11] | GI50 [12] | GI50 [13] | GI50 [14] | GI50 [15] | GI50 [16] | GI50 [17] | GI50 [18] | GI50 [19] | GI50 [20]
1 | CCOC(=O)c1c(NCc2ccccc2)n(-c2ccccc2)c(=S)n(-c2ccccc2)c1=O | 91.6 µM (inactive) | > 100 µM (inactive) | 94.6 µM (inactive) | > 100 µM (inactive) | > 100 µM (inactive) | > 100 µM (inactive) | > 100 µM (inactive) | > 100 µM (inactive) | > 100 µM (inactive) | > 100 µM (inactive) | 35.6 µM (inactive) | > 100 µM (inactive) | > 100 µM (inactive) | 53.3 µM (inactive) | 41.1 µM (inactive) | > 100 µM (inactive) | 98.6 µM (inactive) | > 100 µM (inactive) | > 100 µM (inactive) | –
2 | CN1CC2=C(N=C(S)NC2c2ccccc2Cl)/C(=C/c2ccccc2Cl)C1 (stereo not given) | 30.5 µM (inactive) | > 100 µM (inactive) | 12.2 µM (inactive) | 51.1 µM (inactive) | 28.8 µM (inactive) | 60.3 µM (inactive) | 52.7 µM (inactive) | > 100 µM (inactive) | 38.9 µM (inactive) | 26.2 µM (inactive) | 21.8 µM (inactive) | 56.1 µM (inactive) | 3.81 µM (inactive) | > 100 µM (inactive) | 29 µM (inactive) | 76.2 µM (inactive) | 14.3 µM (inactive) | 71.3 µM (inactive) | 25.9 µM (inactive) | 30.9 µM (inactive)
3 | COC(=O)CCn1cnc2c(SC)ncnc21 | > 100 µM (inactive) | > 100 µM (inactive) | > 100 µM (inactive) | > 100 µM (inactive) | > 100 µM (inactive) | > 100 µM (inactive) | > 100 µM (inactive) | > 100 µM (inactive) | > 100 µM (inactive) | > 100 µM (inactive) | > 100 µM (inactive) | > 100 µM (inactive) | > 100 µM (inactive) | > 100 µM (inactive) | > 100 µM (inactive) | > 100 µM (inactive) | > 100 µM (inactive) | > 100 µM (inactive) | > 100 µM (inactive) | > 100 µM (inactive)
4 | CC1OC(OC2C(Oc3cc(O)c4c(c3)O[C@H](c3ccc(O)cc3)CC4=O)OC(CO)C(O)C2O)C(O)C(O)C1O (stereo not given in full) | > 100 µM (inactive) | – | > 100 µM (inactive) | > 100 µM (inactive) | > 100 µM (inactive) | > 100 µM (inactive) | > 100 µM (inactive) | > 100 µM (inactive) | > 100 µM (inactive) | > 100 µM (inactive) | > 100 µM (inactive) | > 100 µM (inactive) | > 100 µM (inactive) | > 100 µM (inactive) | – | > 100 µM (inactive) | > 100 µM (inactive) | > 100 µM (inactive) | > 100 µM (inactive) | > 100 µM (inactive)
5 | Nn1c(CCCCCCCCc2nnc(-c3c(O)ccc4ccccc34)n2N)nnc1-c1c(O)ccc2ccccc12 | > 100 µM (inactive) | > 100 µM (inactive) | > 100 µM (inactive) | > 100 µM (inactive) | > 100 µM (inactive) | > 100 µM (inactive) | > 100 µM (inactive) | > 100 µM (inactive) | > 100 µM (inactive) | > 100 µM (inactive) | > 100 µM (inactive) | > 100 µM (inactive) | > 100 µM (inactive) | > 100 µM (inactive) | – | > 100 µM (inactive) | > 100 µM (inactive) | > 100 µM (inactive) | > 100 µM (inactive) | > 100 µM (inactive)
6 | COC(=O)N[C@@H]1C[C@H]2CC[C@]1(O[Si](C(C)C)(C(C)C)C(C)C)C(=O)C2 | 14.3 µM (inactive) | 18.1 µM (inactive) | 16.4 µM (inactive) | – | 17.9 µM (inactive) | 21.9 µM (inactive) | 14.2 µM (inactive) | 18.5 µM (inactive) | 18.5 µM (inactive) | 20.5 µM (inactive) | 16.9 µM (inactive) | 18.2 µM (inactive) | 17.5 µM (inactive) | 21.1 µM (inactive) | > 100 µM (inactive) | > 100 µM (inactive) | 14.5 µM (inactive) | 14.7 µM (inactive) | – | 18.5 µM (inactive)
7 | CC1(C)CC[C@]2(C(=O)O)CC[C@]3(C)C(=CC[C@@H]4[C@@]5(C)CC[C@H](OC6OC(C(=O)O)C(O)C(O)C6O)C(C)(C)[C@@H]5CC[C@]43C)[C@@H]2C1 (stereo not given in full) | 18.8 µM (inactive) | 22 µM (inactive) | 19.1 µM (inactive) | 19 µM (inactive) | 19.2 µM (inactive) | 18.4 µM (inactive) | 18.5 µM (inactive) | 16.2 µM (inactive) | 16.9 µM (inactive) | 18.2 µM (inactive) | 18.2 µM (inactive) | 16.5 µM (inactive) | 13.1 µM (inactive) | 24.9 µM (inactive) | 17 µM (inactive) | 16.8 µM (inactive) | 16.8 µM (inactive) | – | 18.1 µM (inactive) | 16.8 µM (inactive)
8 | CC(C)(Cl)C(Br)CC/C(=C/CCl)CBr.CC(C)(Cl)C(Br)CC/C(=C\CCl)CBr (stereo not given) | 14.4 µM (inactive) | 2.1 µM (inactive) | 3.1 µM (inactive) | – | 2 µM (inactive) | 1.64 µM (inactive) | 18.7 µM (inactive) | 8.89 µM (inactive) | 1.9 µM (inactive) | 1.74 µM (inactive) | 0.802 µM (active) | 1.83 µM (inactive) | 2.07 µM (inactive) | 0.733 µM (active) | 1.72 µM (inactive) | 3.32 µM (inactive) | 2.34 µM (inactive) | 2.26 µM (inactive) | 1.71 µM (inactive) | 1.77 µM (inactive)
9 | CC[C@@]1(O)C(=O)OCc2c1cc1n(c2=O)Cc2c-1nc1ccccc1c2/C=N\NC(=O)C(C)N (stereo not given in full) | 0.405 µM (active) | 0.0233 µM (active) | 0.238 µM (active) | 0.0254 µM (active) | 1.61 µM (inactive) | 1.34 µM (inactive) | 0.33 µM (active) | 6.71 µM (inactive) | 0.254 µM (active) | 27 µM (inactive) | < 0.028 µM (active) | 5.36 µM (inactive) | 0.179 µM (active) | < 0.022 µM (active) | – | 0.0401 µM (active) | 7.1 µM (inactive) | > 29.3 µM (inactive) | 1.64 µM (inactive) | 0.186 µM (active)
10 | C=C[C@]1(O)CCC[C@]2(C)C(=O)CCC12C (stereo not given in full) | > 100 µM (inactive) | > 100 µM (inactive) | > 100 µM (inactive) | > 100 µM (inactive) | > 100 µM (inactive) | > 100 µM (inactive) | > 100 µM (inactive) | > 100 µM (inactive) | > 100 µM (inactive) | > 100 µM (inactive) | > 100 µM (inactive) | > 100 µM (inactive) | > 100 µM (inactive) | > 100 µM (inactive) | > 100 µM (inactive) | > 100 µM (inactive) | > 100 µM (inactive) | – | > 100 µM (inactive) | > 100 µM (inactive)

From ChEMBL document CHEMBL1201862, “PubChem BioAssay data set” (2004)
